One compound from article PMC3605511, “Tumor P-Glycoprotein Correlates with Efficacy of PF-3758309 in in vitro and in vivo Models of Colorectal Cancer” (Frontiers in Pharmacology, 2013) can be followed below.

Data set [1] can be described thus: Tumor concentration 6 h after a single dose, P-gp tumor concentration study. The format is in vivo, mice. To be noted: single dose 25 mg/kg, 6 h post treatment; SW480 and HCT15 vs GEO and HCT116 xenografts. How it is done: Plasma and tumor samples were collected 1 h post treatment at the end of therapeutic studies or 6 h post treatment for P-gp tumor concentration studies. PF-309 was measured in mouse plasma and tumor tissue using a validated LC/MS/MS assay carried out by the University of Colorado Cancer Center Pharmacology Shared Resource. Positive ion electrospray ionization (ESI) mass spectra were obtained with a 3200 QTrap triple quadrupole mass spectrometer (Applied Biosystems Inc., Foster City, CA, USA) with a turboionspray source interfaced to an Agilent 1200 Series binary HPLC system (Agilent Technologies Inc., Santa Clara, CA, USA), and a HTC-PAL auto-sampler (LEAP Technologies, Carrboro, NC, USA). […]
Finally, we determined if the presence of P-gp affects tumor concentration. We evaluated the tumor concentration in two tumor xenograft lines with high ABCB1 gene expression (SW480 and HCT15) and two tumor xenografts with low ABCB1 gene expression (GEO and HCT116). Tumors from animals treated with a single dose of 25 mg/kg PF-309 were collected 6 h post treatment and concentrations analyzed. […] Tumors were also analyzed by western blot to confirm the presence or absence of P-gp, which agreed with the gene expression data (Figure 7B).

Another data set deals with DLD1 PgP_KD2. The data set can be described thus: Proliferation after shRNA knockdown of P-gp, DLD1 PgP_KD2. The following applies: Homo sapiens, DLD-1; DLD1 PgP_KD2 :50, P-gp shRNA knockdown. The data set is classed as cell-based. As for the experimental part:
Cytotoxic/proliferation effects were determined using the sulforhodamine B (SRB) assay (Skehan et al., [1990]) or by resazurin. Briefly, cells in logarithmic growth phase were transferred to 96 well flat bottom plates with lids. One-hundred microliter cell suspensions containing 1500–5000 viable cells were plated into each well and incubated overnight prior to exposure with increasing concentrations of PF-309 for 3–5 days, dependent upon cell type. Media was removed and cells were fixed with cold 10% trichloroacetic acid for 30 min at 4°C. Cells were then washed with water and stained with 0.4% SRB (Fisher Sci., Pittsburgh, PA, USA) for 30 min at room temperature, washed again with 1% acetic acid, followed by stain solubilization with 10 mM tris at room temperature. The plate was then read on a plate reader (Biotek Synergy 2, Winooski, VT, USA) set at an absorbance wavelength of 565 nm. Cell proliferation curves were derived from the raw absorbance (OD) data.
The pGIPZ Pgp-specific shRNA expression cassettes, along with control shRNA plasmids including the original pGIPZ vector were purchased from Open Biosystems (Birmingham, AL, USA). […] Successful knockdown of specific genes and gene products was confirmed by semi-quantitative RT-PCR and immunoblotting with specific antibodies. […]

The target in a further data set is T1, BCRP (Homo sapiens, UniProt Q9UNQ0).
T1 construct: expressed in transfected cells; host or cells: BCRP-MDCKII-LE cells (canine MDCKII subpopulation with low endogenous P-gp)
T1 sequence (Q9UNQ0 whole entry): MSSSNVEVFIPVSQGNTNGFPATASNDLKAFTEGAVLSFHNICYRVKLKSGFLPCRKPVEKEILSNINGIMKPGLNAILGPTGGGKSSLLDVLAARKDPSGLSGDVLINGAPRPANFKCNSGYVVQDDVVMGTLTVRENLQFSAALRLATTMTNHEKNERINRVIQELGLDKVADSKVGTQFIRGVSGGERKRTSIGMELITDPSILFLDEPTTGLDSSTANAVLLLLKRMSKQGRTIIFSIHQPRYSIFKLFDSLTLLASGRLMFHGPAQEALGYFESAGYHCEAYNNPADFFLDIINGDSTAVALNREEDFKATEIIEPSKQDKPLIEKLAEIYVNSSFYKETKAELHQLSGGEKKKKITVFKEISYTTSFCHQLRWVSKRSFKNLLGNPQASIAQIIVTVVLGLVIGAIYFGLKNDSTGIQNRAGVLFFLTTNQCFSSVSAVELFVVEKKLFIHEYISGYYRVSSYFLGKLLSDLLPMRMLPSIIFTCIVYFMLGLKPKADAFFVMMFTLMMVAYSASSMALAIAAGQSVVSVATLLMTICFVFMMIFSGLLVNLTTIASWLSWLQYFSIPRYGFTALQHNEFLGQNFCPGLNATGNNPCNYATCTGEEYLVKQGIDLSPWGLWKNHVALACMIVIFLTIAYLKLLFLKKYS
The data set can be described thus: BCRP-MDCKII-LE transwell assay (BCRP efflux). The format is in vitro ADME. Details: A → B: scale not given here. How it is done: Permeability and transporter substrate assays were performed as previously published (Feng et al., [2008]; Callegari et al., [2011]; Di et al., [2011]). Permeability assays were conducted in MDCKII-LE cells, which were generated by isolation of a subpopulation of cells with low expression of endogenous P-gp (Feng et al., [2008]; Callegari et al., [2011]; Di et al., [2011]). The use of MDCKII-LE cells are used to measure the passive permeability of compounds in place of MDCK wild-type or Caco-2 cells since both MDCK wild-type and Caco-2 cells are known to have some level of endogenous transporter expression which can affect the permeability measurement. P-gp efflux was determined in MDR1-MDCK cells and BCRP efflux was measured in BCRP-MDCKII-LE cells.
MDR1-MDCK and BCRP-MDCKII-LE transwell assays measure the effect of P-gp and BCRP, respectively, on transcellular flux. The efflux ratio, ratio of the B → A flux to the A → B flux, of PF-309 was measured to be 34.9 ± 7.9 in the MDR1-MDCK assay, indicating it is a strong substrate for P-gp. PF-309 was also determined to be substrate for BCRP as the efflux ratio was measured to be 7.6 ± 1.1. As a reference, compounds with efflux ratios >2 are considered to be substrates (Callegari et al., [2011]).

For `Cc1nc(Nc2n[nH]c3c2CN(C(=O)N[C@H](CN(C)C)c2ccccc2)C3(C)C)c2sccc2n1` [PF-309], in data set [1], the “tumor concentration, high tumor P-gp vs low ABCB1 expression” value is on record as “∼four fold lower”. For the same compound, the IC50 – broadly, the concentration at which inhibition is half-maximal – with DLD1 PgP_KD2 is 18 nM. The efflux ratio – broadly, the permeability from basolateral to apical divided by that in the opposite direction, in the common usage – on BCRP (dog, ratio of B → A flux to A → B flux, >2 = substrate) amounted to 7.6. Also, the “A → B” value on BCRP (transwell flux) is “;1.4 ± 0.1 cm/s”.
